Data on 31 molecules can be found in ChEMBL document CHEMBL2086247, “Protein-ligand crystal structures can guide the design of selective inhibitors of the FGFR tyrosine kinase” (J Med Chem, 2012).

In experiment [1] the target is T1, Fibroblast growth factor receptor 1 (Homo sapiens, UniProt P11362).
Description: Inhibition of human FGFR1 phosphorylation expressed in COS1 cells after 1 hr by immunoblotting
For experiment [2], the target named is T2, Insulin-like growth factor 1 receptor (Homo sapiens, UniProt P08069). Nature of the experiment: Inhibition of human IGF1R phosphorylation expressed in IGF-1-stimulated knockout mouse R+ cells treated 30 mins before IGF-1 stimulation measured after 20 mins by immunofluorescence.
Experiment [3] has as its target T3, Vascular endothelial growth factor receptor 2 (Homo sapiens, UniProt P35968). Nature of the experiment: Inhibition of recombinant N terminal GST-tagged human KDR (805 to 1356) expressed in baculovirus infected Sf9 cells after 90 mins by caliper mobility shift assay.
The target in experiment [4] is T3, Vascular endothelial growth factor receptor 2. Nature of the experiment: Inhibition of human KDR phosphorylation expressed in VEGF-stimulated HUVEC treated 90 mins before VEGF stimulation measured after 5 mins by ELISA. It is filed as cell-based. For orientation: ELISA stands for enzyme-linked immunosorbent assay.
The target in experiment [5] is T2, Insulin-like growth factor 1 receptor. Nature of the experiment: Inhibition of recombinant N terminal His6-tagged human IGF1R (959 to end) expressed in baculovirus infected Sf21 cells after 80 mins by caliper mobility shift assay.
For experiment [6], the target named is T1, Fibroblast growth factor receptor 1. Nature of the experiment: biochemical.
Description: Inhibition of recombinant N terminal GST-tagged human FGFR1 (456 to 765) expressed in baculovirus infected Sf21 cells after 40 mins by caliper mobility shift assay
Experiment [7] concerns the target Dual specificity mitogen-activated protein kinase kinase 1 (Homo sapiens, UniProt Q02750). Nature of the experiment: Inhibition of MEK1 fused with GST by autoradiography.

SMILES strings stand for the structures.

T3 sequence (P35968 whole entry): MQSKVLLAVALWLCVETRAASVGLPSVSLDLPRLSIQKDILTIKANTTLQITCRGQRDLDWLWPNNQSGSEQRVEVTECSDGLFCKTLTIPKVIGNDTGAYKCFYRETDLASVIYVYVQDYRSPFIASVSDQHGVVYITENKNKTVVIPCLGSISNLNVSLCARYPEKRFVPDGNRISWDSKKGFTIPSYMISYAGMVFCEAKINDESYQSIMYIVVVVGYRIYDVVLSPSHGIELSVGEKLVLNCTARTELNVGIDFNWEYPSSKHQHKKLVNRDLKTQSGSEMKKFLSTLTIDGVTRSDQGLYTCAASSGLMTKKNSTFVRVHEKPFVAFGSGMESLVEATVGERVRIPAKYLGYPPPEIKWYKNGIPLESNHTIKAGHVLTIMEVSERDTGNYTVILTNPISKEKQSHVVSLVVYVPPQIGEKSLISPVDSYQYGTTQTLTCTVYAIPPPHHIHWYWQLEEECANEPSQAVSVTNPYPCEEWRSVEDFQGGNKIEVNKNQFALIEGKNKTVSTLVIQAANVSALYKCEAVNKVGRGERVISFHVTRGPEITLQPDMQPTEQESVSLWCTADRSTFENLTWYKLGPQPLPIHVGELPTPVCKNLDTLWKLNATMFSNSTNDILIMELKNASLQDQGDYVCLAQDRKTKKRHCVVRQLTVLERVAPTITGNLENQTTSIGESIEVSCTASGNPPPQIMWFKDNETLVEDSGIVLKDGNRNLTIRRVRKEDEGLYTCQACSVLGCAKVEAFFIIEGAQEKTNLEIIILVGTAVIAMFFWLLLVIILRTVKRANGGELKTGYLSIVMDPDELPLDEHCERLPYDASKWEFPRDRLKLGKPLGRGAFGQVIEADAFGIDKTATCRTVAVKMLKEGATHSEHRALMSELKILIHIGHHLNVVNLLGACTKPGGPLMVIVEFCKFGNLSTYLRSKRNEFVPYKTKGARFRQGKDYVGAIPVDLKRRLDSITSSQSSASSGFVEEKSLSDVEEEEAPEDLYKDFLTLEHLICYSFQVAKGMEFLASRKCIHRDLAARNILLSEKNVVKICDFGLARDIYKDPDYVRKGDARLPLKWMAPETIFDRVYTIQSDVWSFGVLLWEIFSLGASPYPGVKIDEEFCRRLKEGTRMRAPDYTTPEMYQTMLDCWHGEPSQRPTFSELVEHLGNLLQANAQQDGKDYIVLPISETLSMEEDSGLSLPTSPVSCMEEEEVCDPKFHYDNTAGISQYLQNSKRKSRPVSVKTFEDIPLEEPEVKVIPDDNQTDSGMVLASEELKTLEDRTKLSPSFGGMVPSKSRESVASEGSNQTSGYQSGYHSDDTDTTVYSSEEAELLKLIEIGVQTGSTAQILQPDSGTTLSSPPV
T1 sequence (P11362 whole entry): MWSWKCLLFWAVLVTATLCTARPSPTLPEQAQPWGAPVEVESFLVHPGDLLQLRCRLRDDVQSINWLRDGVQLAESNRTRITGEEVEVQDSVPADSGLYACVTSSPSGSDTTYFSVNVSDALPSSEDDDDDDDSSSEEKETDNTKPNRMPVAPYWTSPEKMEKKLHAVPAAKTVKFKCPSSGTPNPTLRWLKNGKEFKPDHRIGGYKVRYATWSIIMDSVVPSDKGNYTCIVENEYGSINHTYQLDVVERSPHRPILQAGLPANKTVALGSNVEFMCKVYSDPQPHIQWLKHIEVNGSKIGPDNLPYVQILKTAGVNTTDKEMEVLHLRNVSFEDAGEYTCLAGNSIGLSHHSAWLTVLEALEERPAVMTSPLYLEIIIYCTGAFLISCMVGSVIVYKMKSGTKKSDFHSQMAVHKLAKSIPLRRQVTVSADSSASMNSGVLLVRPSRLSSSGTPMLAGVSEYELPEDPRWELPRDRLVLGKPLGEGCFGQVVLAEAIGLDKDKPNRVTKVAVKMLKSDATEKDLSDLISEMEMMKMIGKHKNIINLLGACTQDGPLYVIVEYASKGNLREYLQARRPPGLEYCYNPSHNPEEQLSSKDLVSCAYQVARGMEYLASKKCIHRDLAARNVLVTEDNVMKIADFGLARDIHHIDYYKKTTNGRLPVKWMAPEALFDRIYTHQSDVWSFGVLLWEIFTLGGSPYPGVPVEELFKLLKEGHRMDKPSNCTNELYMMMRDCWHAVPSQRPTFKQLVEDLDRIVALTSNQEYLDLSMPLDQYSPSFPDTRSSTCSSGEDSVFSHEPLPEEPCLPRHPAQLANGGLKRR
Chain of Dual specificity mitogen-activated protein kinase kinase 1 (Q02750 whole entry, the tested form may be a part): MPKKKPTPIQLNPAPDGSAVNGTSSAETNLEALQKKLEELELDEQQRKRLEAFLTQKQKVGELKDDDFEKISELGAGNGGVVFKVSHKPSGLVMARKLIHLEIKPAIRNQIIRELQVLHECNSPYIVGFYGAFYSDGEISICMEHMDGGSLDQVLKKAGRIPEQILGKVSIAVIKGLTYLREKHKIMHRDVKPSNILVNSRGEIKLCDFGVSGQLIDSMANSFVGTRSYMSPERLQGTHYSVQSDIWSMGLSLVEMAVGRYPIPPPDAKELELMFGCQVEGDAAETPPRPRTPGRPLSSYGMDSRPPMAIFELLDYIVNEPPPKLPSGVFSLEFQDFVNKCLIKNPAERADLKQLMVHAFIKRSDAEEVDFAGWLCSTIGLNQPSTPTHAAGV

Broadly, the IC50 is the point on the concentration scale where inhibition reaches its midpoint. For the molecule `Cc1cc(Nc2nc(NCCc3cccnc3)ncc2Br)[nH]n1`, the IC50 is 2510 nM in experiment [1]; 3980 nM in experiment [2]; 631 nM in experiment [3]; above 10000 nM in experiment [4]; 6310 nM in experiment [5]; 501 nM in experiment [6].
With `C=CCNc1ncc(Br)c(Nc2cc(C)[nH]n2)n1`, the IC50 in experiment [2] is 6310 nM; in experiment [3], 1000 nM; in experiment [4], 794 nM; in experiment [5], 3980 nM.
As to `Cc1cc(Nc2nc(NCc3cc(C)no3)ncc2Br)[nH]n1`, the IC50 in experiment [1] is 158 nM; in experiment [2], 6310 nM; in experiment [3], 631 nM; in experiment [4] it was 6310 nM; in experiment [5], 7940 nM; in experiment [6] it was 63.1 nM.
On to `Cc1cc(Nc2nc(NCc3cc(C(C)(C)C)no3)ncc2Br)[nH]n1`, for which the IC50 is 158 nM in experiment [1]; 3160 nM in experiment [2]; 3980 nM in experiment [3]; above 10000 nM in experiment [4]; 10000 nM in experiment [5]; 31.6 nM in experiment [6].
Take `COCCCc1cc(Nc2nc(NCc3cc(C)no3)ncc2Br)[nH]n1`: the IC50 in experiment [1] was 794 nM; in experiment [2], above 20000 nM; in experiment [3], 1260 nM; in experiment [4] it was above 10000 nM; in experiment [5], 20000 nM; in experiment [6], 63.1 nM.
For `CCCc1cc(Nc2nc(NCc3cc(C)no3)ncc2Br)n[nH]1`, the IC50 is 100 nM in experiment [1]; 501 nM in experiment [2]; 158 nM in experiment [3]; 6310 nM in experiment [4]; 398 nM in experiment [5]; 10 nM in experiment [6].
For the molecule `Cc1cc(CNc2ncc(Br)c(Nc3cc(CCc4ccccc4)[nH]n3)n2)on1`, the IC50 in experiment [1] was 63.1 nM; in experiment [2], 10000 nM; in experiment [3], 25.1 nM; in experiment [4] it was 1580 nM; in experiment [5], 6310 nM; in experiment [6], 2.51 nM.
Turning to `COc1cc(CCc2cc(Nc3ccnc(NCc4cc(C)no4)n3)n[nH]2)cc(OC)c1`, the IC50 is below 15.8 nM in experiment [1]; 5010 nM in experiment [2]; 79.4 nM in experiment [3]; 1580 nM in experiment [4]; 6310 nM in experiment [5]; 2 nM in experiment [6].
As for `Cc1cc(CNc2ncc(Cl)c(Nc3cc(C)[nH]n3)n2)on1`, the values for the IC50 in experiment [3] and in experiment [5] were 501 nM and 7940 nM, respectively.
The like results for `Cc1cc(CNc2nccc(Nc3cc(C)[nH]n3)n2)on1` were, in that order, 1000 nM and 12600 nM.
As for `COCCCc1cc(Nc2ccnc(NCc3cc(C)no3)n2)n[nH]1`, in experiment [3], the IC50 is 2510 nM.
As to `Cc1cc(CNc2nccc(Nc3cc(CCc4ccccc4)[nH]n3)n2)on1`, in experiment [3], the half-inhibitory concentration (IC50) is 126 nM.
Take `Cc1cc(Nc2nc(NCc3ccccn3)ncc2Br)n[nH]1`: the IC50 in experiment [3] is 1580 nM; in experiment [5], 12600 nM; in experiment [6], 200 nM.
The like results for `Cc1cc(Nc2nc(NCCCc3c[nH]nc3C)ncc2Br)n[nH]1` were, in that order, 501 nM, 6310 nM and 126 nM.
As for `Cc1cc(Nc2nc(NCCc3ccco3)ncc2Br)n[nH]1`, the IC50 was 200 nM in experiment [3], 3980 nM in experiment [5] and 200 nM in experiment [6].
`Cc1cnc(CNc2ncc(Br)c(Nc3cc(C)[nH]n3)n2)cn1`: the IC50 was 1000 nM in experiment [3], 12600 nM in experiment [5] and 100 nM in experiment [6].
The like results for `Cc1cc(CCNc2ncc(Br)c(Nc3cc(C)[nH]n3)n2)on1` were, in that order, 501 nM, 15800 nM and 398 nM.
Regarding `Cc1cc(Nc2nc(NCc3ncccc3C)ncc2Br)n[nH]1`, the half-maximal inhibitory concentration (IC50) in experiment [3] is 501 nM; in experiment [5] it was 50100 nM.
The like results for `Cc1cc(Nc2nc(NCc3cc(C(=O)N4CCCC4)no3)ncc2Br)n[nH]1` were, in that order, 15800 nM and 10000 nM.
As to `Cc1cc(Nc2ccnc(NCc3cc(C4CC4)no3)n2)n[nH]1`, the IC50 in experiment [3] is 794 nM; in experiment [5], 10000 nM; in experiment [6], 25.1 nM.
As for `Cc1cc(Nc2ccnc(NCc3cc(C(N)=O)no3)n2)[nH]n1`, the IC50 in experiment [3] is 1260 nM; in experiment [5], 7940 nM; in experiment [6], 100 nM.
`Cc1cc(CNc2nccc(Nc3cc(CO)[nH]n3)n2)on1`: the IC50 in experiment [3] is 20000 nM; in experiment [5], 39800 nM.
As for `CCc1cc(Nc2nc(NCc3ccccn3)ncc2Br)n[nH]1`, the IC50 was 501 nM in experiment [3], 3160 nM in experiment [5] and 39.8 nM in experiment [6].
Turning to `CCc1cc(Nc2nc(NCc3cc(-c4ccccn4)no3)ncc2Br)n[nH]1`, the IC50 was 3160 nM in experiment [3] and 100 nM in experiment [5].
The like results for `CCCc1cc(Nc2nc(NCc3cccnc3)ncc2Br)n[nH]1` were, in that order, 126 nM and 1580 nM.
The like results for `CC(C)c1cc(Nc2nc(NCc3cccnc3)ncc2Br)n[nH]1` were, in that order, 398 nM and 398 nM.
Regarding `COCCCc1cc(Nc2ccnc(NCc3cc(C4CC4)no3)n2)n[nH]1`, the values for the concentration for half-maximal inhibition (IC50) in experiment [3] and in experiment [5] were 1580 nM and 12600 nM, respectively.
The like results for `COCCCc1cc(Nc2ccnc(NCc3cc(C(N)=O)no3)n2)[nH]n1` were, in that order, 1260 nM and 100000 nM.
On to `COc1cc(CCc2cc(Nc3ccnc(NCc4ccccn4)n3)[nH]n2)cc(OC)c1`, for which the IC50 in experiment [3] was 398 nM; in experiment [5] it was 79400 nM; in experiment [6] it was 5.01 nM.
`COc1cc(CCc2cc(Nc3ccnc(NCc4cc(C)on4)n3)n[nH]2)cc(OC)c1`: the IC50 was 126 nM in experiment [3], 12600 nM in experiment [5] and 2 nM in experiment [6].
Molecule `CCN(CC)CCCCNc1ncc2cc(-c3cc(OC)cc(OC)c3)c(NC(=O)NC(C)(C)C)nc2n1` [PD-173074] came in with a concentration for half-maximal inhibition (IC50) in experiment [7] above 50000 nM.
